# Results from US9937145B2, “Sulfamate derivative compound for use in preventing or treating epilepsy” (Bio-Pharm Solutions Co., Ltd., priority 2013, dated 2018).
# Where two headings read alike, the source gives them in different places. Marks after values point to notes of the source that are not given here.
# Experiments:
# male ICR mice = experiment: MES test (anti-epilepsy activity), mice, oral (mMES po); assay type: in vivo; conditions: Mus musculus; for responders at 50 mg/kg: injection amount 50 mg/kg; for ED50: mice, at peak time; for responders at 100 mg/kg: injection amount 100 mg/kg; for responders at 80 mg/kg: injection amount 80 mg/kg
# Procedure: (§1) Biological Experimental Example. 1: Measurement of Anti-Epilepsy Activity (MES-Test)
# (§2) In the MES test (Ref., G. Villetti et al. Neuropharmacology 40(2001) 866-878), an electrical stimulus (mice: 50 mA, 60 Hz, 0.2 sec, and rats: 150 mA, 60 Hz, 0.2 sec in the test animal) supplied by an 11 A Shocker (IITC Life Science Company) was delivered through corneal electrodes. All mice or rats assigned to any electroshock at peak time were treated with each test compound sample which was dissolved in 20% tween 80 prepared by saline solvent applied orally before the test. […] Three doses of the test sample were administered orally to 9-18 animals (3-6 mice per dose) for evaluating the respective doses at which 50% of the animals were protected from seizure (ED50). The ED50 value (median effective close) was calculated by Litchfield and Wicoxon log-probit method which is a dose-response relationship. Experimental animals, male ICR mice and male SD rats, were purchased from OrientBio, Samtako, or Nara Biotech, Korea, and housed in cages (4-5 mice or 3 rats per cage) for 4-5 days. The range of mice body weight was between 19 and 25 grams and range of rats body weight was between 100 and 130 grams.
# (§3) The obtained results are shown as mean±sem. The difference between the groups was statistically analyzed by ANOVA, and then further examined by Dunnett's test or Bonferroni test. If p is less than 0.05, it was determined that the difference between the groups had statistical significance.
# (§4) The results of anti-epileptic activity of the sulfamate derivative compounds measured in the above Experimental Example are shown in the following Tables 4 and 5.
# male SD rats = experiment: MES test (anti-epilepsy activity), rats, oral (rMES po); assay type: in vivo; conditions: for ED50: Rattus norvegicus, rats, at peak time; for rMES(po) Protection %: 3 rats
# Procedure: as §1, §2, §3, §4
# [1] = 3 mice, read-out: mMES(po) Protection %
SMILES,responders at 50 mg/kg (male ICR mice; [1]) [%],ED50 (male SD rats) [mg/kg],responders at 100 mg/kg (male ICR mice; [1]) [%],other results
"CC1(C)OC(COS(N)(=O)=O)C(c2ccccc2Cl)O1 (mixture of isomers) [Example 4, (5-(2-chlorophenyl)-2,2-dimethyl-1,3-dioxolan-4-yl)methyl sulfamate(SR & RS mixture)]",33,5.2,–,–
"CC1(C)O[C@@H](COS(N)(=O)=O)[C@H](c2ccccc2F)O1 [Example 16, ((4S, 5S)-5-(2-fluorophenyl)-2,2-dimethyl-1,3-dioxolan-4-yl)methyl sulfamate]",100,7.7,–,–
CC1(C)O[C@@H](COS(=O)(=O)[NH][Na])[C@H](c2ccccc2N)O1 [Example 66],–,11.8,–,ED50 (male ICR mice): 12.3 mg/kg
"Nc1ccccc1[C@@H]1OC2(CCCC2)O[C@H]1COS(N)(=O)=O [Example 72, ((2S, 3S)-3-(2-aminophenyl)-1,4-dioxaspiro[4,4]nonan-2-yl)methyl sulfamate]",–,1,–,ED50 (male ICR mice): 14.2 mg/kg
"NS(=O)(=O)OC[C@@H]1OC(=O)O[C@H]1c1ccccc1[N+](=O)[O-] [Example 90, ((4S, 5S)-5-(2-nitrophenyl)-2-oxo-1,3-dioxolan-4-yl)methyl sulfamate]",–,1.1,–,ED50 (male ICR mice): 9.2 mg/kg
"NS(=O)(=O)OCC[C@H]1OC2(CCCCC2)O[C@@H]1Cc1ccccc1Cl [Example 144, 2-((2R, 3R)-3-(2-chlorobenzyl)-1,4-dioxaspiro[4,5]decan-2-yl)ethyl sulfamate]",–,–,33.3,–
"CC1(C)O[C@H](COS(N)(=O)=O)[C@@H](Cc2ccccc2Cl)O1 [Example 146, ((4R, 5R)-5-(2-chlorobenzyl)-2,2-dimethyl-1,3-dioxolan-4-yl)methyl sulfamate]",66.6,–,–,–
"CCC1(CC)O[C@H](COS(N)(=O)=O)[C@@H](Cc2ccccc2Cl)O1 [Example 148, ((4R, 5R)-5-(2-chlorobenzyl)-2,2-diethyl-1,3-dioxolan-4-yl)methyl sulfamate]",33.3,–,–,–
"NS(=O)(=O)OC[C@H]1OC2(CCCC2)O[C@@H]1Cc1ccccc1Cl [Example 150, ((2R, 3R)-3-(2-chlorobenzyl)-1,4-dioxaspiro[4,4]nonan-2-yl)methyl sulfamate]",100,–,–,–
"NS(=O)(=O)OC[C@H]1OC2(CCCCC2)O[C@@H]1Cc1ccccc1Cl [Example 152, ((2R, 3R)-3-(2-chlorobenzyl)-1,4-dioxaspiro[4,5]decan-2-yl)methyl sulfamate]",66.6,–,–,–
"CC1(C)O[C@@H](CCOS(N)(=O)=O)[C@H](c2ccccc2Cl)O1 [Example 154, 2-((4S, 5S)-5-(2-chlorophenyl)-2,2-dimethyl-1,3-dioxolan-4-yl)ethyl sulfamate]",100,–,–,–
"CCC1(CC)O[C@@H](CCOS(N)(=O)=O)[C@H](c2ccccc2Cl)O1 [Example 156, 2-((4S, 5S)-5-(2-chlorophenyl)-2,2-diethyl-1,3-dioxolan-4-yl)ethyl sulfamate]",–,–,–,responders at 80 mg/kg (male ICR mice; [1]): 100%
"NS(=O)(=O)OCC[C@@H]1OC2(CCCC2)O[C@H]1c1ccccc1Cl [Example 158, 2-((2S, 3S)-3-(2-chlorophenyl)-1,4-dioxaspiro[4,4]nonan-2-yl)ethyl sulfamate]",100,–,–,–
"NS(=O)(=O)OCC[C@@H]1OC2(CCCCC2)O[C@H]1c1ccccc1Cl [Example 160, 2-((2S, 3S)-3-(2-chlorophenyl)-1,4-dioxaspiro[4,5]decan-2-yl)ethyl sulfamate]",–,–,–,responders at 80 mg/kg (male ICR mice; [1]): 66.6%
"CC1(C)O[C@H](COS(N)(=O)=O)[C@H](c2ccccc2Cl)O1 [Example 161, ((4R, 5S)-5-(2-chlorophenyl)-2,2-dimethyl-1,3-dioxolan-4-yl)methyl sulfamate]",–,–,100,–
"CC1(C)O[C@@H](COS(N)(=O)=O)[C@@H](c2ccccc2Cl)O1 [Example 162, ((4S, 5R)-5-(2-chlorophenyl)-2,2-dimethyl-1,3-dioxolan-4-yl)methyl sulfamate]",–,–,100,–
"CC1(C)O[C@H](c2sc(Cl)nc2Cl)[C@@H](COS(N)(=O)=O)O1 [Example 163, ((4R, 5S)-5-(2,4-dichlorothiazol-5-yl)-2,2-dimethyl-1,3-dioxolan-4-yl)methyl sulfamate]",–,6.5,–,"responders at 50 mg/kg (male ICR mice; 4 mice, read-out: mMES(po) Protection %): 50%"
"CC1(C)O[C@@H](COS(N)(=O)=O)[C@H](c2sc(Cl)nc2Cl)O1 [Example 164, ((4S, 5R)-5-(2,4-dichlorothiazol-5-yl)-2,2-dimethyl-1,3-dioxolan-4-yl)methyl sulfamate]",100,13.2,–,–
"CC1(C)O[C@H](c2cnc(Cl)s2)[C@@H](COS(N)(=O)=O)O1 [Example 165, ((4R, 5S)-5-(2-chlorothiazol-5-yl)-2,2-dimethyl-1,3-dioxolan-4-yl)methylsulfamate]",–,–,100,–
"CC1(C)O[C@@H](COS(N)(=O)=O)[C@H](c2cnc(Cl)s2)O1 [Example 166, ((4R, 5S)-5-(2-chlorothiazol-5-yl)-2,2-dimethyl-1,3-dioxolan-4-yl)methylsulfamate]",–,1.9,100,–
"Cc1ncsc1[C@@H]1OC(C)(C)O[C@H]1COS(N)(=O)=O [Example 168, ((4S, 5R)-2,2-dimethyl-5-(4-methylthiazol-5-yl)-1,3-dioxolan-4-yl)methylsulfamate]",–,4.9,100,–
"Cc1nc(Cl)sc1[C@H]1OC(C)(C)O[C@@H]1COS(N)(=O)=O [Example 169, ((4R, 5S)-2,2-dimethyl-5-(2-chloro-4-methylthiazol-5-yl)-1,3-dioxolan-4-yl)methylsulfamate]",–,–,–,"responders at 30 mg/kg (male ICR mice; injection amount 30 mg/kg, 3 mice, read-out: mMES(po) Protection %): 100%; rMES(po) Protection % (male SD rats; injection amount 15 mg/kg): 15^a (100%)"
"Cc1nc(Cl)sc1[C@@H]1OC(C)(C)O[C@H]1COS(N)(=O)=O [Example 170, ((4S, 5R)-2,2-dimethyl-5-(2-chloro-4-methylthiazol-5-yl)-1,3-dioxolan-4-yl)methylsulfamate]",–,–,100,–
"CC1(C)O[C@@H](COS(N)(=O)=O)[C@H](c2ccsc2)O1 [Example 171, ((4S, 5S)-2,2-dimethyl-5-(thiophen-3-yl)-1,3-dioxolan-4-yl)methylsulfamate]",–,–,–,ED50 (male ICR mice): 43.3 mg/kg
"CC1(C)O[C@@H](COS(N)(=O)=O)[C@H](c2ccc(Cl)s2)O1 [Example 172, ((4S, 5R)-2,2-dimethyl-5-(5-chlorothiophen-2-yl)-1,3-dioxolan-4-yl)methylsulfamate]",–,4.7,–,ED50 (male ICR mice): 30.2 mg/kg
"CC1(C)OC(COS(N)(=O)=O)C(c2ccncc2Cl)O1 (centres unmarked) [Example 173, (5-(3-chloropyridin-4-yl)-2,2-dimethyl-1,3-dioxolan-4-yl)methylsulfamate]",–,–,100,–
"CC1(C)OC(COS(N)(=O)=O)C(c2cnccc2Cl)O1 (centres unmarked) [Example 174, (5-(4-chloropyridin-3-yl)-2,2-dimethyl-1,3-dioxolan-4-yl)methylsulfamate]",–,–,100,–
CC1(C)OC(COS(N)(=O)=O)C(c2cncnc2)O1 (centres unmarked) [Example 175],–,–,100,–
"CC1(C)OC(COS(N)(=O)=O)C(c2cnc(Cl)nc2)O1 (centres unmarked) [Example 176, (2,2-dimethyl-5-(2-chloropyrimidin-5-yl)-1,3-dioxolan-4-yl)methylsulfamate]",–,–,100,–
"CC1(C)O[C@@H](COS([NH-])(=O)=O)[C@H](c2ccccc2Cl)O1.[Na+] [Example 177, sodium ((((4S,5S)-5-(2-chlorophenyl)-2,2-dimethyl-1,3-dioxolan-4-yl)methoxy)sulfonyl)amide]",–,–,–,rMES(po) Protection % (male SD rats; injection amount 3.5 mg/kg): 3.5^a (100%)
